Consider 61 compounds from patent US10287266B2, “Compounds and compositions for inhibiting the activity of SHP2” (NOVARTIS AG, priority 2015, dated 2019).

This assay addresses T1, SHP2 (Homo sapiens, UniProt Q06124).
T1 sequence (Q06124 1-593): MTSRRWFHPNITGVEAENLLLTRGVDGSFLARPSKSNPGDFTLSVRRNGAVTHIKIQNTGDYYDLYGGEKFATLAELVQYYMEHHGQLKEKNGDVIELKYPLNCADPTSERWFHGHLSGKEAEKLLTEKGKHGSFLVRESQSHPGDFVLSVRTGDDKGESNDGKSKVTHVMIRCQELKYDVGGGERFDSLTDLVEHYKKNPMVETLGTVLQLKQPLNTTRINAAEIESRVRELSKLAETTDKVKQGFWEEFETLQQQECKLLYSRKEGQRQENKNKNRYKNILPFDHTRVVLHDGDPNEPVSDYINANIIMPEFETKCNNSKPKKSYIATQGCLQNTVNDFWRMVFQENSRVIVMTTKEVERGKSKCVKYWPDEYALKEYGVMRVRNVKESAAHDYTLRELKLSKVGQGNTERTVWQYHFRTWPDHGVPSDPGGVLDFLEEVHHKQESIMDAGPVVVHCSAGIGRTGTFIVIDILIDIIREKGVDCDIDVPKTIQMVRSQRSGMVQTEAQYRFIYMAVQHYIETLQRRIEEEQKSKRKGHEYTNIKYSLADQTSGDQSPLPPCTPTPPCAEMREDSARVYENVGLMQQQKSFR
Description: SHP2 Allosteric Inhibition Assay. The assay is classed as biochemical. The following applies: 0.5 nM SHP2 activated with 0.5 μM peptide IRS1_pY1172(dPEG8)pY1222; surrogate substrate DiFMUP, prompt fluorescence, 25° C. The source says: SHP2 Allosteric Inhibition Assay
SHP2 is allosterically activated through binding of bis-tyrosyl-phorphorylated peptides to its Src Homology 2 (SH2) domains. The latter activation step leads to the release of the auto-inhibitory interface of SHP2, which in turn renders the SHP2 protein tyrosine phosphatase (PTP) active and available for substrate recognition and reaction catalysis. The catalytic activity of SHP2 was monitored using the surrogate substrate DiFMUP in a prompt fluorescence assay format.
After 30-60 minutes incubation at 25° C., the surrogate substrate DiFMUP (Invitrogen, cat# D6567) was added to the reaction and incubated at 25° C. for 30 minutes. […] The inhibitor dose response curves were analyzed using normalized IC50 regression curve fitting with control based normalization.
For `N[C@@H]1CCCC12CCN(c1cnc(Sc3c(F)c(F)cc(F)c3F)cn1)CC2` [Example 101], half-maximal activity (AC50) was put at 2510 nM.

`C[C@H]1OCC2(CCN(c3cnc(Sc4ccnc(N)c4Cl)cn3)CC2)[C@H]1N` [Example 58]: the AC50 came out at 454 nM.

In turn, `COC(=O)C1(CN)CCN(c2cnc(Sc3ccnc(N)c3Cl)cn2)CC1` [Example 44] yielded a half-maximal activity concentration (AC50) of 45.7 nM.

On to `Nc1cc(Sc2cnc(N3CCC4(CC3)C[C@H](O)C[C@H]4N)cn2)c(Cl)c(Cl)n1` [Example 15], for which the AC50 was determined as 6 nM.

As to `Nc1nccc(Sc2cnc(N3CCC4(CC3)C[C@H](O)[C@@H](O)[C@H]4N)cn2)c1Cl` [Example 57], the AC50 worked out at 43.8 nM.

Turning to `C[C@@H]1C[C@@H](N)C2(CCN(c3cnc(Sc4ccnc(N)c4Cl)cn3)CC2)C1` [Example 30], the activity was half-maximal at 17 nM (AC50).

On to `N[C@@H]1[C@H](O)[C@@H](O)CC12CCN(c1cnc(Sc3ccnc(Cl)c3Cl)cn1)CC2` [Example 55], for which half-maximal activity (AC50) was put at 5.1 nM.

Compound `CCc1ccccc1Sc1cnc(N2CCC3(CCC[C@@H]3N)CC2)cn1` [Example 125] returned an AC50 of 101 nM.

Compound `CCC1(CN)CCN(c2cnc(Sc3ccnc(N)c3Cl)cn2)CC1` [Example 18] displayed an AC50 of 8.2 nM.

For `N#Cc1cccc(Sc2cnc(N3CCC4(CCC[C@H]4N)CC3)cn2)c1` [Example 80], half-maximal activity (AC50) was put at 210 nM.

For the compound `CC1CCC2(CCN(c3cnc(Sc4ccnc(N)c4Cl)cn3)CC2)[C@@H]1N` (stereo partly shown) [Example 38], the AC50 was 24.7 nM.

With `CO[C@@H]1C[C@@H](N)C2(CCN(c3cnc(Sc4ccnc(N)c4Cl)cn3)CC2)C1` [Example 43], the activity was half-maximal at 42.6 nM (AC50).

`Nc1nccc(Sc2cnc(N3CCC(N)(CO)CC3)cn2)c1Cl` [Example 54] came in with an AC50 of 381 nM.

`CCc1cccc(Sc2cnc(N3CCC4(CCC[C@H]4N)CC3)cn2)c1` [Example 129] had an AC50 of 526 nM.

In turn, `C[C@@H]1OCC2(CCN(c3cnc(Sc4ccncc4F)cn3)CC2)[C@@H]1N` [Example 113] came in with a half-maximal activity concentration (AC50) of 34.8 nM.

On to `C[C@@H]1OCC2(CCN(c3cnc(Sc4cc(N)nc(Cl)c4Cl)cn3)CC2)[C@@H]1N` [Example 28], for which the AC50 worked out at 14.1 nM.

Regarding `CC1(CN)CCN(c2cnc(Sc3ccc(N)cc3Cl)cn2)CC1` [Example 9, 4-((5-(4-(aminomethyl)-4-methylpiperidin-1-yl)pyrazin-2-yl)thio)-3-chloroaniline], the AC50 stood at 30.6 nM.

As to `N[C@@H]1CCCC12CCN(c1cnc(Sc3cccc(F)c3F)cn1)CC2` [Example 75], the AC50 turned out to be 97.7 nM. Compared with the last compound, the AC50 is about 3.2-fold higher.

Regarding `Cc1c(Sc2cnc(N3CCC4(CCC[C@H]4N)CC3)cn2)cccc1C(F)(F)F` [Example 98], the AC50 stood at 293 nM.

The compound `CC1(CN)CCN(c2cnc(Sc3ccnc(N)c3Cl)cn2)CC1O` (single isomer, unassigned) [Example 40] had an AC50 of 108 nM.

Consider `COc1ccccc1Sc1cnc(N2CCC3(CCC[C@H]3N)CC2)cn1` [Example 69], for which the AC50 is 41.8 nM.

In turn, `N[C@@H]1CCCC12CCN(c1cnc(Sc3ccncc3)cn1)CC2` [Example 89] registered an AC50 of 107 nM.

Turning to `CC(C)CC1(CN)CCN(c2cnc(Sc3ccnc(N)c3Cl)cn2)CC1` [Example 29], the AC50 came to 15.5 nM. Compared with the last compound, the AC50 is about 6.9-fold lower.

In the case of `N[C@@H]1COCC12CCN(c1cnc(Sc3ccncc3C(F)(F)F)cn1)CC2` [Example 49], the activity was half-maximal at 66.1 nM (AC50).

The compound `CC1(CN)CCN(c2cnc(Sc3cc(N)nc(Cl)c3Cl)cn2)CC1` [Example 59] registered an AC50 of 155 nM.

Compound `Nc1ccccc1Sc1cnc(N2CCC3(CCC[C@H]3N)CC2)cn1` [Example 68] displayed an AC50 of 968 nM.

Compound `CC1(CN)CCN(c2cnc(Sc3ccnc(N)c3Cl)cn2)CC1O` (single isomer, unassigned) [Example 39] registered a half-maximal activity concentration (AC50) of 28.2 nM.

Turning to `CC(C)(C)c1ccccc1Sc1cnc(N2CCC3(CCC[C@@H]3N)CC2)cn1` [Example 131], the AC50 was determined as 1460 nM.

As to `CC(C)(C)c1ccccc1Sc1cnc(N2CCC3(CCC[C@H]3N)CC2)cn1` [Example 66], half-maximal activity (AC50) was put at 1460 nM.

For `C[C@@H]1OCC2(CCN(c3cnc(Sc4ccnc(N)c4Cl)cn3)CC2)[C@@H]1N` [Example 3, (3S,4S)-8-(5-((2-amino-3-chloropyridin-4-yl)thio)pyrazin-2-yl)-3-methyl-2-oxa-8-azaspiro[4.5]decan-4-amine], half-maximal activity (AC50) was put at 7.9 nM.

On to `C[C@@H]1OCC2(CCN(c3cnc(Sc4ccccc4)cn3)CC2)[C@@H]1N` [Example 108], for which the AC50 came out at 52 nM. This AC50 is about 6.6-fold higher than that of the compound before.

For `N#Cc1c(Sc2cnc(N3CCC4(CCC[C@H]4N)CC3)cn2)ccnc1Cl` [Example 5, (R)-4-((5-(1-amino-8-azaspiro[4.5]decan-8-yl)pyrazin-2-yl)thio)-2-chloronicotinonitrile], the activity was half-maximal at 67 nM (AC50).

`N[C@@H]1CCCC12CCN(c1cnc(Sc3cccc(CN4CCOCC4)c3)cn1)CC2` [Example 94] came in with an AC50 of 39 nM.

As for `CC1(CN)CCN(c2cnc(Sc3cccc(N)c3Cl)cn2)CC1` [Example 22], the activity was half-maximal at 10 nM (AC50).

The compound `Nc1nccc(Sc2cnc(N3CCC4(CC3)C[C@H](F)C[C@H]4N)cn2)c1Cl` [Example 10] returned an AC50 of 3.9 nM.

Compound `CC1(N)CCN(c2cnc(Sc3cccnc3C(F)(F)F)cn2)CC1` [Example 6, 4-methyl-1-(5-((2-(trifluoromethyl)pyridin-3-yl)thio)pyrazin-2-yl)piperidin-4-amine] showed an AC50 of 127 nM.

Regarding `Nc1nccc(Sc2cnc(N3CCC4(CCCCN4)CC3)cn2)c1Cl` [Example 8, 4-((5-(1,9-diazaspiro[5.5]undecan-9-yl)pyrazin-2-yl)thio)-3-chloropyridin-2-amine], the AC50 worked out at 434 nM.

In turn, `C[C@@H]1OCC2(CCN(c3cnc(Sc4ccnc(N)c4Cl)cn3)CC2)[C@@H]1N` [Example 115] registered an AC50 of 24.7 nM.

Consider `C[C@@H]1OCC2(CCN(c3cnc(Sc4ccnc(C(F)(F)F)c4)cn3)CC2)[C@@H]1N` [Example 122], for which the AC50 amounted to 18.5 nM.

In turn, `COc1cccc(Sc2cnc(N3CCC4(CCC[C@H]4N)CC3)cn2)c1` [Example 74] came in with an AC50 of 37.6 nM.

The compound `N[C@@H]1CCCC12CCN(c1cnc(Sc3cccnc3)cn1)CC2` [Example 106] registered an AC50 of 11300 nM.

For `CCOc1cccc(Sc2cnc(N3CCC4(CCC[C@H]4N)CC3)cn2)c1` [Example 83], the AC50 was determined as 78.1 nM.

As to `N[C@@H]1C[C@H](O)CC12CCN(c1cnc(Sc3ccnc(Cl)c3Cl)cn1)CC2` [Example 20], the AC50 stood at 8.7 nM.

With `NCC1(CO)CCN(c2cnc(Sc3ccnc(N)c3Cl)cn2)CC1` [Example 50], the activity was half-maximal at 70.5 nM (AC50). Against the preceding compound, the AC50 is about 8.1-fold higher.

Take `CC(C)c1ccccc1Sc1cnc(N2CCC3(CCC[C@H]3N)CC2)cn1` [Example 63]: half-maximal activity (AC50) was put at 44.6 nM.

Compound `N[C@@H]1CCCC12CCN(c1cnc(Sc3cccc(S(F)(F)(F)(F)F)c3)cn1)CC2` [Example 102] registered an AC50 of 436 nM.

Take `N[C@@H]1COCC12CCN(c1cnc(Sc3cccnc3C(F)(F)F)cn1)CC2` [Example 47]: half-maximal activity (AC50) was put at 56 nM.

`CC1(CN)CCN(c2cnc(Sc3ccnc(N)c3Cl)cn2)CC1O` (single isomer, unassigned) [Example 52]: the half-maximal activity concentration (AC50) came out at 791 nM.

In turn, `N[C@@H]1CCCC12CCN(c1cnc(Sc3cccc(Cl)c3)cn1)CC2` [Example 77] came in with an AC50 of 279 nM.

In the case of `C[C@H]1C[C@@H](N)C2(CCN(c3cnc(Sc4cc(N)nc(Cl)c4Cl)cn3)CC2)C1` [Example 60], the activity was half-maximal at 35.1 nM (AC50).

Turning to `N[C@@H]1CCCC12CCN(c1cnc(Sc3cccc(Cl)c3F)cn1)CC2` [Example 93], the AC50 came out at 89.3 nM.

The compound `CC(=O)c1cccc(Sc2cnc(N3CCC4(CCC[C@H]4N)CC3)cn2)c1` [Example 119] returned an AC50 of 138 nM.

Compound `N[C@@H]1CCCC12CCN(c1cnc(Sc3ccccc3F)cn1)CC2` [Example 70] displayed an AC50 of 30.4 nM. This AC50 is about 4.5-fold lower than that of the compound before.

With `CC1(CN)CCN(c2cnc(Sc3cccnc3C(F)(F)F)cn2)CC1` [Example 46], the AC50 worked out at 47.6 nM.

`N[C@@H]1CCCC12CCN(c1cnc(Sc3cccc(C(F)(F)F)c3)cn1)CC2` [Example 85] had an AC50 of 52.8 nM. This AC50 and that of the compound before are within 1.5-fold of each other.

In turn, `CC(C)(C)c1ccc(Sc2cnc(N3CCC4(CCC[C@@H]4N)CC3)cn2)cc1` [Example 132] had an AC50 of 1960 nM. Compared with the last compound, the AC50 is about 37-fold higher.

Compound `CC1(CN)CCN(c2cnc(Sc3ccnc(N)c3Cl)cn2)CC1O` (single isomer, unassigned) [Example 51] had an AC50 of 72.3 nM.

Compound `N[C@@H]1CCCC12CCN(c1cnc(Sc3ccccc3OC(F)(F)F)cn1)CC2` [Example 65] came in with an AC50 of 30.5 nM.

On to `N[C@@H]1CCCC12CCN(c1cnc(Sc3cc[nH]c(=O)c3Cl)cn1)CC2` [Example 105], for which the activity was half-maximal at 78.9 nM (AC50).

`C[C@H]1C[C@@H](N)C2(CCN(c3cnc(Sc4ccnc(N)c4Cl)cn3)CC2)C1` [Example 14] had an AC50 of 6 nM. This AC50 lies about 13-fold lower than the previous one.

Take `N[C@@H]1CCCC12CCN(c1cnc(Sc3cccc(Cl)c3Cl)cn1)CC2` [Example 107]: the AC50 was 74 nM. Compared with the last compound, the AC50 is about 12-fold higher.

A word on the AC50: it is the midpoint of the concentration-response curve, whichever way the signal moves. Read a low AC50 as greater potency.
